Experimental data taken from US20250320226.
Where two headings read alike, the source gives them in different places.

tert-Butyl ((4R,10R)-10-(benzyloxy)-4-methyl-25,10-bis(trifluoromethyl)-3-oxa-1(2,5)-oxadiazola-2(2,6)-pyridinacyclodecaphane-23-yl)carbamate
ring closure, isolated yield (ether bond, 14-membered ring, PPh3/DIAD, toluene, 30.2 mM): 52%

C[C@@H]1C/C=C\CCC(OCc2ccccc2)(C(F)(F)F)C2=NN=C(O2)c2nc(c(C(F)(F)F)cc2NC(=O)OC(C)(C)C)O1 (stereo partly drawn)
ring closure, isolated yield (from C[C@H](CC[P+](c1ccccc1)(c1ccccc1)c1ccccc1)Oc1nc(-c2nnc(C(CCC=O)(OCc3ccccc3)C(F)(F)F)o2)c(N(C(=O)OC(C)(C)C)C(=O)OC(C)(C)C)cc1C(F)(F)F, other bond, 14-membered ring, NaOtBu, THF, 11.2 mM): 50%

C[C@H]1CCCCC[C@](O)(C(F)(F)F)C(=O)NNC(=O)c2nc(c(C(F)(F)F)cc2NC(=O)OC(C)(C)C)O1
ring closure, isolated yield (from C[C@@H](CCCCC[C@@](O)(C(=O)O)C(F)(F)F)Oc1nc(C(=O)NN)c(NC(=O)OC(C)(C)C)cc1C(F)(F)F, amide bond, 15-membered ring, HATU/DIEA, DMF (DIEA added in 2-MeTHF), 21.9 mM): 15%
